Measured values reported in ChEMBL document CHEMBL1155182, “Diphenylmethylene hydroxamic acids as selective class IIa histone deacetylase inhibitors” (Bioorg Med Chem Lett, 2009).

Columns and labels:
Histone deacetylase 4 = Histone deacetylase 4 (Homo sapiens, UniProt P56524)
Description: Inhibition of human recombinant N-terminal FLAG-tagged HDAC4 (612-1034) expressed in baculovirus after 10 mins by fluorimetric analysis

Histone deacetylase 5 = Histone deacetylase 5 (Homo sapiens, UniProt Q9UQL6)
Description: Inhibition of human recombinant N-terminal FLAG-tagged HDAC5 (620-1122) expressed in baculovirus after 10 mins by fluorimetric analysis

Histone deacetylase [1] = settings: hek-293t
Description: Inhibition of class 1 HDAC in HEK293T cells after 16 hrs by whole cell assay

Histone deacetylase [2] = settings: hek-293t; remark: listed apart in the source
Description: Inhibition of class 2a HDAC in HEK293T cells after 16 hrs by whole cell assay

Histone deacetylase 7 = target: T1, Histone deacetylase 7 (Homo sapiens, UniProt Q8WUI4)
T1 sequence (Q8WUI4 whole entry): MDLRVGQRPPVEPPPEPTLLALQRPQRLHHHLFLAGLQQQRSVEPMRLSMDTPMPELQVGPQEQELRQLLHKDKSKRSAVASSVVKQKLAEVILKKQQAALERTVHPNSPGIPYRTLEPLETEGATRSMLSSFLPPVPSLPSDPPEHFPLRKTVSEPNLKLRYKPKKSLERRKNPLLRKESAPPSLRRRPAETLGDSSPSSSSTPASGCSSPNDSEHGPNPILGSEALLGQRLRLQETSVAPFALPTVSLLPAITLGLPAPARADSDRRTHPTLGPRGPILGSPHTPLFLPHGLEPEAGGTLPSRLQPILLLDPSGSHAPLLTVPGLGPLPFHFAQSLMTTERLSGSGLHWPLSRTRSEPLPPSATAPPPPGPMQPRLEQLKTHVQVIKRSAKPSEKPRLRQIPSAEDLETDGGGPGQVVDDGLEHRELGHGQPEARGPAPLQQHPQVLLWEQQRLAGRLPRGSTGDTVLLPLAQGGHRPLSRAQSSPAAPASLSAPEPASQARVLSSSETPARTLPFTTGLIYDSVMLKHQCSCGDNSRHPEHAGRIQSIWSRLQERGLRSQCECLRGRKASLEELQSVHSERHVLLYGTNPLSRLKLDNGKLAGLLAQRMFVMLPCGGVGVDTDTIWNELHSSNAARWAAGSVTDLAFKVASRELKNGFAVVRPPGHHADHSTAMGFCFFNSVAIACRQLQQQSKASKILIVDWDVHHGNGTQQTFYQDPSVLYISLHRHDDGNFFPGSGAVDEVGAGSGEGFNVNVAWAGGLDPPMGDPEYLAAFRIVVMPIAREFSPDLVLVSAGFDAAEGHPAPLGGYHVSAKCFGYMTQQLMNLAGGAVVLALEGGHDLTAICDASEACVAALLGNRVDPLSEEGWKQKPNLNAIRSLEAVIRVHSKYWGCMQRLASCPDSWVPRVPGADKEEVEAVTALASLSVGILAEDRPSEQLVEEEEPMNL
Description: Inhibition of human recombinant N-terminal FLAG-tagged HDAC7 (438-915) expressed in baculovirus after 10 mins by fluorimetric analysis

Chain of Histone deacetylase 4 (P56524 whole entry): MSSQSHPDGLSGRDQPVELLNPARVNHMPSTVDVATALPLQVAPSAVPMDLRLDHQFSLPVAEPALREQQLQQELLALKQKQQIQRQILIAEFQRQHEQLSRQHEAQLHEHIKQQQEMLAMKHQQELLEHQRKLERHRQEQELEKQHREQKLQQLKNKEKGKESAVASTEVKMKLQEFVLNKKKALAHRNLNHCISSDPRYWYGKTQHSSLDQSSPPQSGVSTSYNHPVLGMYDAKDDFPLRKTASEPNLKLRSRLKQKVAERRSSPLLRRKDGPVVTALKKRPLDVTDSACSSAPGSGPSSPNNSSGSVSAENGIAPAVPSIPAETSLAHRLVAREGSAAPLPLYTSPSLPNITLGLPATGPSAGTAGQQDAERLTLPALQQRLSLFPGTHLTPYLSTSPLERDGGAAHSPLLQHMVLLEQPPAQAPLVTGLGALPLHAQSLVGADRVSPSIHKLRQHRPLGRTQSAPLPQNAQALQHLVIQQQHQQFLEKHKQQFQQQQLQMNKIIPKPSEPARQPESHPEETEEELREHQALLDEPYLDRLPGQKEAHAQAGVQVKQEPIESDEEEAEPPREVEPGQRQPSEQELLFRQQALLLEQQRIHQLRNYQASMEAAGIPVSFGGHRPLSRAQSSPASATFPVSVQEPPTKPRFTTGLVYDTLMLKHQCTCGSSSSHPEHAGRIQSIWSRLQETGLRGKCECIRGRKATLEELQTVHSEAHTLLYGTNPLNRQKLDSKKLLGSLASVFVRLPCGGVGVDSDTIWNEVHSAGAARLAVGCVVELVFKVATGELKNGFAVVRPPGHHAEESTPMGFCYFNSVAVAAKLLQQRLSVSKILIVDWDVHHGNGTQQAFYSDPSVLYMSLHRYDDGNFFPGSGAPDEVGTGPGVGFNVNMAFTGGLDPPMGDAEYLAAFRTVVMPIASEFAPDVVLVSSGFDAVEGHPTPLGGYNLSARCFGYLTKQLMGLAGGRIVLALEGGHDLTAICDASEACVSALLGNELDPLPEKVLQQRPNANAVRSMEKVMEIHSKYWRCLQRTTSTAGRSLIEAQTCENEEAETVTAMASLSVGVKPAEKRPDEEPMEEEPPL
Chain of Histone deacetylase 5 (Q9UQL6 whole entry): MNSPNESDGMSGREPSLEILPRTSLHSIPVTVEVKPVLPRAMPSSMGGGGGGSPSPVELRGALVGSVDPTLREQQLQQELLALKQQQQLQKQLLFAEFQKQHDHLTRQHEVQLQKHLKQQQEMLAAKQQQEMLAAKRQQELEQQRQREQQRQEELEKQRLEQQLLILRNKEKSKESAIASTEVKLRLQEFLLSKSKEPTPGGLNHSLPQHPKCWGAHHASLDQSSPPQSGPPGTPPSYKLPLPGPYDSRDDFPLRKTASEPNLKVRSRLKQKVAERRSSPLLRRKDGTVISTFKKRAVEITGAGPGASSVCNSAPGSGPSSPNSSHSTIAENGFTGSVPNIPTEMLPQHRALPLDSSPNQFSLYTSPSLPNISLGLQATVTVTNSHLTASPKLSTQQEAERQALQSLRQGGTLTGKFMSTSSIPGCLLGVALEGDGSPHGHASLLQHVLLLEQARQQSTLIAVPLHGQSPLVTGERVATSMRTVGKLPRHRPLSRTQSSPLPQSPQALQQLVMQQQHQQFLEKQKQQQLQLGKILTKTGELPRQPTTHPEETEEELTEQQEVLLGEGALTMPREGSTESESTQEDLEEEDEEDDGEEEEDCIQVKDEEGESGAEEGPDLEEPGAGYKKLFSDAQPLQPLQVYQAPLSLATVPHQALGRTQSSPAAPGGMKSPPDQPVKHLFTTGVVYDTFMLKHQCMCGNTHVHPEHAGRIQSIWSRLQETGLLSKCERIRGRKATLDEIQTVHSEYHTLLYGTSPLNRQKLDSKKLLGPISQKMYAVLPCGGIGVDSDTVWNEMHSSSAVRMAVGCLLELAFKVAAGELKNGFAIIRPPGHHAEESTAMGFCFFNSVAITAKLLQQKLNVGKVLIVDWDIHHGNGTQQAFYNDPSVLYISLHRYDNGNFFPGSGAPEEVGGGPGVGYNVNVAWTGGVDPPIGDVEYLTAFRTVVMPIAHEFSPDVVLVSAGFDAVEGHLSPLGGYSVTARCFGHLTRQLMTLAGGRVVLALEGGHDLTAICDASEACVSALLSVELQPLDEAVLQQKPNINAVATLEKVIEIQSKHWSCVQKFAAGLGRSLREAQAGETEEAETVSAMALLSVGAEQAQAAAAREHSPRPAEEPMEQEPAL

SMILES | IC50 (Histone deacetylase 4) [nM] | IC50 (Histone deacetylase 5) [nM] | IC50 (Histone deacetylase [1]) [nM] | IC50 (Histone deacetylase [2]) [nM] | IC50 (Histone deacetylase 7) [nM]
O=C(NO)C1c2ccccc2Cc2ccccc21 | 2320 | 1460 | – | – | –
O=C(NO)C(c1cccc(F)c1)c1cccc(F)c1 | 700 | 90 | – | – | –
CN1c2ccccc2C(C(=O)NO)c2ccccc21 | 1910 | 470 | – | – | –
O=C(NO)C(c1ccc(F)cc1)c1ccc(F)cc1 | 1100 | 280 | > 50000 | 3500 | 1760
CS(=O)(=O)Nc1ccc(C(C(=O)NO)c2ccc(NS(C)(=O)=O)cc2)cc1 | > 10000 | > 10000 | > 50000 | > 50000 | > 10000
O=C(NO)C(c1ccc(Cl)cc1)c1ccc(Cl)cc1 | 960 | 210 | – | – | 1400
O=C(CC(c1ccccc1)c1ccccc1)NO | > 10000 | > 10000 | – | – | > 10000
O=C(NO)C(Cc1ccccc1)c1ccccc1 (stereo not drawn) | > 10000 | > 10000 | – | – | > 10000
CC(C(=O)NO)c1ccccc1 (stereo not drawn) | > 10000 | > 10000 | – | – | > 10000
O=C(NO)C(c1ccc2c(c1)CCO2)c1ccc2c(c1)CCO2 | 210 | 110 | > 50000 | 900 | 110
CC(C(=O)NO)(c1ccccc1)c1ccccc1 | 4500 | 1200 | > 50000 | 16000 | 4800
